# PubChem BioAssay (NCI)
#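 Following 48 hours of exposure in 96-well plates, responses at five concentrations were used to interpolate endpoints linearly. TGI marks complete inhibition of growth.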
# Tests used:
# Assay in all cases: inhibition of tumour cell growth, NCI panel, 48 h
# HCT-116 colon = tested on: HCT-116 colon
# HL-60(TB) leukemia = tested on: HL-60(TB) leukemia
# NCI-H522 lung = tested on: NCI-H522 lung
# MOLT-4 leukemia = tested on: MOLT-4 leukemia
# UACC-62 melanoma = tested on: UACC-62 melanoma
# MDA-MB-231 breast = tested on: MDA-MB-231 breast
# A549 NSCLC = tested on: A549 NSCLC
# TK-10 renal = tested on: TK-10 renal
# A498 renal = tested on: A498 renal
# SN12C renal = tested on: SN12C renal
# OVCAR-8 ovarian = tested on: OVCAR-8 ovarian
# HT29 colon = tested on: HT29 colon
# MCF7 breast = tested on: MCF7 breast
# T-47D breast = tested on: T-47D breast
# BT-549 breast = tested on: BT-549 breast
# SK-MEL-2 melanoma = tested on: SK-MEL-2 melanoma
# OVCAR-5 ovarian = tested on: OVCAR-5 ovarian
# NCI/ADR-RES ovarian = tested on: NCI/ADR-RES ovarian
# HCT-15 colon = tested on: HCT-15 colon
# SNB-75 CNS = tested on: SNB-75 CNS
# ACHN renal = tested on: ACHN renal
# SK-MEL-5 melanoma = tested on: SK-MEL-5 melanoma
# 786-0 renal = tested on: 786-0 renal
# UO-31 renal = tested on: UO-31 renal
# CAKI-1 renal = tested on: CAKI-1 renal
# SNB-19 CNS = tested on: SNB-19 CNS
# CCRF-CEM leukemia = tested on: CCRF-CEM leukemia
# SK-OV-3 ovarian = tested on: SK-OV-3 ovarian
# KM12 colon = tested on: KM12 colon
# EKVX NSCLC = tested on: EKVX NSCLC
# OVCAR-4 ovarian = tested on: OVCAR-4 ovarian
# RXF 393 renal = tested on: RXF 393 renal
# COLO 205 colon = tested on: COLO 205 colon
# U251 CNS = tested on: U251 CNS
# SF-268 CNS = tested on: SF-268 CNS
# SW-620 colon = tested on: SW-620 colon
# SF-295 CNS = tested on: SF-295 CNS
# SK-MEL-28 melanoma = tested on: SK-MEL-28 melanoma
# MDA-N = tested on: MDA-N
# SF-539 CNS = tested on: SF-539 CNS
# MDA-MB-435 = tested on: MDA-MB-435
# UACC-257 melanoma = tested on: UACC-257 melanoma
# IGROV1 ovarian = tested on: IGROV1 ovarian
# NCI-H226 lung = tested on: NCI-H226 lung
# LOX IMVI melanoma = tested on: LOX IMVI melanoma
# PC-3 prostate = tested on: PC-3 prostate
# M14 melanoma = tested on: M14 melanoma
# HS 578T breast = tested on: HS 578T breast
# MALME-3M melanoma = tested on: MALME-3M melanoma
# HOP-62 NSCLC = tested on: HOP-62 NSCLC
# DU-145 prostate = tested on: DU-145 prostate
# NCI-H23 lung = tested on: NCI-H23 lung
# SR leukemia = tested on: SR leukemia
# HOP-92 NSCLC = tested on: HOP-92 NSCLC
# RPMI-8226 leukemia = tested on: RPMI-8226 leukemia
# HCC-2998 colon = tested on: HCC-2998 colon
# NCI-H460 lung = tested on: NCI-H460 lung
# K-562 leukemia = tested on: K-562 leukemia
# OVCAR-3 ovarian = tested on: OVCAR-3 ovarian
compound,measurement,setting,value
CNc1cc(OCc2ccccc2)c(OC)cc1C(=O)N1CCC[C@H]1CO,TGI,HCT-116 colon,> 100 µM
same,TGI,HL-60(TB) leukemia,> 100 µM
same,TGI,NCI-H522 lung,> 100 µM
same,TGI,MOLT-4 leukemia,> 100 µM
same,TGI,UACC-62 melanoma,> 100 µM
same,TGI,MDA-MB-231 breast,> 100 µM
same,TGI,A549 NSCLC,> 100 µM
same,TGI,TK-10 renal,> 100 µM
same,TGI,A498 renal,> 100 µM
same,TGI,SN12C renal,> 100 µM
same,TGI,OVCAR-8 ovarian,> 100 µM
same,TGI,HT29 colon,> 100 µM
same,TGI,MCF7 breast,> 100 µM
same,TGI,T-47D breast,> 100 µM
same,TGI,BT-549 breast,> 100 µM
same,TGI,SK-MEL-2 melanoma,> 100 µM
same,TGI,OVCAR-5 ovarian,> 100 µM
same,TGI,NCI/ADR-RES ovarian,> 100 µM
same,TGI,HCT-15 colon,> 100 µM
same,TGI,SNB-75 CNS,> 100 µM
same,TGI,ACHN renal,> 100 µM
same,TGI,SK-MEL-5 melanoma,> 100 µM
same,TGI,786-0 renal,> 100 µM
same,TGI,UO-31 renal,> 100 µM
same,TGI,CAKI-1 renal,> 100 µM
same,TGI,SNB-19 CNS,> 100 µM
same,TGI,CCRF-CEM leukemia,> 100 µM
same,TGI,SK-OV-3 ovarian,> 100 µM
same,TGI,KM12 colon,> 100 µM
same,TGI,EKVX NSCLC,> 100 µM
same,TGI,OVCAR-4 ovarian,> 100 µM
same,TGI,RXF 393 renal,> 100 µM
same,TGI,COLO 205 colon,> 100 µM
same,TGI,U251 CNS,> 100 µM
same,TGI,SF-268 CNS,> 100 µM
same,TGI,SW-620 colon,> 100 µM
same,TGI,SF-295 CNS,> 100 µM
same,TGI,SK-MEL-28 melanoma,> 100 µM
same,TGI,MDA-N,> 100 µM
same,TGI,SF-539 CNS,> 100 µM
same,TGI,MDA-MB-435,> 100 µM
same,TGI,UACC-257 melanoma,> 100 µM
same,TGI,IGROV1 ovarian,> 100 µM
same,TGI,NCI-H226 lung,> 100 µM
same,TGI,LOX IMVI melanoma,> 100 µM
same,TGI,PC-3 prostate,> 100 µM
same,TGI,M14 melanoma,> 100 µM
same,TGI,HS 578T breast,> 100 µM
same,TGI,MALME-3M melanoma,> 100 µM
same,TGI,HOP-62 NSCLC,> 100 µM
same,TGI,DU-145 prostate,> 100 µM
same,TGI,NCI-H23 lung,> 100 µM
COc1ccc2c(c1)CN1C(=N2)CSC1c1c(Cl)cccc1[N+](=O)[O-] (stereo not given),TGI,HCT-116 colon,29.5 µM
same,TGI,HL-60(TB) leukemia,43.8 µM
same,TGI,SR leukemia,39 µM
same,TGI,NCI-H522 lung,68.6 µM
same,TGI,MOLT-4 leukemia,34.8 µM
same,TGI,UACC-62 melanoma,37 µM
same,TGI,MDA-MB-231 breast,34.6 µM
same,TGI,A549 NSCLC,> 100 µM
same,TGI,TK-10 renal,84.1 µM
same,TGI,SN12C renal,35 µM
same,TGI,OVCAR-8 ovarian,> 100 µM
same,TGI,HT29 colon,38.1 µM
same,TGI,MCF7 breast,30 µM
same,TGI,HOP-92 NSCLC,55.7 µM
same,TGI,T-47D breast,> 100 µM
same,TGI,BT-549 breast,31.9 µM
same,TGI,SK-MEL-2 melanoma,34.1 µM
same,TGI,OVCAR-5 ovarian,95.7 µM
same,TGI,NCI/ADR-RES ovarian,46.4 µM
same,TGI,HCT-15 colon,40.3 µM
same,TGI,SNB-75 CNS,74.3 µM
same,TGI,ACHN renal,> 100 µM
same,TGI,SK-MEL-5 melanoma,27 µM
same,TGI,786-0 renal,76.9 µM
same,TGI,RPMI-8226 leukemia,34.1 µM
same,TGI,UO-31 renal,65.1 µM
same,TGI,CAKI-1 renal,64.2 µM
same,TGI,SNB-19 CNS,> 100 µM
same,TGI,SK-OV-3 ovarian,> 100 µM
same,TGI,KM12 colon,44.2 µM
same,TGI,EKVX NSCLC,77.2 µM
same,TGI,OVCAR-4 ovarian,> 100 µM
same,TGI,RXF 393 renal,52.2 µM
same,TGI,HCC-2998 colon,41.6 µM
same,TGI,COLO 205 colon,67.9 µM
same,TGI,NCI-H460 lung,31.5 µM
same,TGI,U251 CNS,37 µM
same,TGI,K-562 leukemia,61.1 µM
same,TGI,SF-268 CNS,53.8 µM
same,TGI,SW-620 colon,50.6 µM
same,TGI,SF-295 CNS,52.6 µM
same,TGI,SK-MEL-28 melanoma,44.3 µM
same,TGI,MDA-N,40.9 µM
same,TGI,SF-539 CNS,33 µM
same,TGI,MDA-MB-435,47.5 µM
same,TGI,UACC-257 melanoma,42.6 µM
same,TGI,IGROV1 ovarian,> 100 µM
same,TGI,NCI-H226 lung,32.2 µM
same,TGI,LOX IMVI melanoma,34.9 µM
same,TGI,PC-3 prostate,66.3 µM
same,TGI,M14 melanoma,37.3 µM
same,TGI,HS 578T breast,> 100 µM
same,TGI,MALME-3M melanoma,> 100 µM
same,TGI,HOP-62 NSCLC,> 100 µM
same,TGI,NCI-H23 lung,56.1 µM
COP1(=O)OCc2cnccc2O1 (stereo not given),TGI,HCT-116 colon,> 100 µM
same,TGI,SR leukemia,> 100 µM
same,TGI,NCI-H522 lung,> 100 µM
same,TGI,MOLT-4 leukemia,> 100 µM
same,TGI,UACC-62 melanoma,> 100 µM
same,TGI,MDA-MB-231 breast,> 100 µM
same,TGI,A549 NSCLC,> 100 µM
same,TGI,TK-10 renal,> 100 µM
same,TGI,SN12C renal,> 100 µM
same,TGI,OVCAR-8 ovarian,> 100 µM
same,TGI,HT29 colon,> 100 µM
same,TGI,MCF7 breast,> 100 µM
same,TGI,T-47D breast,> 100 µM
same,TGI,BT-549 breast,> 100 µM
same,TGI,SK-MEL-2 melanoma,> 100 µM
same,TGI,OVCAR-5 ovarian,> 100 µM
same,TGI,NCI/ADR-RES ovarian,> 100 µM
same,TGI,HCT-15 colon,> 100 µM
same,TGI,SNB-75 CNS,> 100 µM
same,TGI,ACHN renal,> 100 µM
same,TGI,SK-MEL-5 melanoma,> 100 µM
same,TGI,786-0 renal,> 100 µM
same,TGI,RPMI-8226 leukemia,> 100 µM
same,TGI,UO-31 renal,> 100 µM
same,TGI,CAKI-1 renal,> 100 µM
same,TGI,SNB-19 CNS,> 100 µM
same,TGI,SK-OV-3 ovarian,> 100 µM
same,TGI,KM12 colon,> 100 µM
same,TGI,EKVX NSCLC,> 100 µM
same,TGI,OVCAR-4 ovarian,> 100 µM
same,TGI,HCC-2998 colon,> 100 µM
same,TGI,COLO 205 colon,> 100 µM
same,TGI,NCI-H460 lung,> 100 µM
same,TGI,U251 CNS,> 100 µM
same,TGI,K-562 leukemia,> 100 µM
same,TGI,SF-268 CNS,> 100 µM
same,TGI,SW-620 colon,> 100 µM
same,TGI,SF-295 CNS,> 100 µM
same,TGI,SK-MEL-28 melanoma,> 100 µM
same,TGI,MDA-N,> 100 µM
same,TGI,SF-539 CNS,> 100 µM
same,TGI,MDA-MB-435,> 100 µM
same,TGI,UACC-257 melanoma,> 100 µM
same,TGI,IGROV1 ovarian,> 100 µM
same,TGI,NCI-H226 lung,> 100 µM
same,TGI,LOX IMVI melanoma,> 100 µM
same,TGI,PC-3 prostate,> 100 µM
same,TGI,M14 melanoma,> 100 µM
same,TGI,HS 578T breast,> 100 µM
same,TGI,MALME-3M melanoma,> 100 µM
same,TGI,HOP-62 NSCLC,> 100 µM
same,TGI,OVCAR-3 ovarian,> 100 µM
same,TGI,NCI-H23 lung,> 100 µM
